Reference: paper PMC11881906, “Development of xanthone derivatives as effective broad-spectrum antimicrobials: Disrupting cell wall and inhibiting DNA synthesis” (Science Advances, 2025)
In brackets after ≈: the same amount, converted by molar mass. Like-named read-outs stand apart in the source and are kept apart here.

What was measured:
[1] = tested on: rabbit erythrocytes; assay: Hemolysis assay; assay type: cell-based; details: concentration causing 50% hemolysis of red blood cells; 1 hour, 37°C
Method: The hemolytic activity of antimicrobial agents was investigated as previously described ([70]). Briefly, the rabbit erythrocytes were centrifuged at 2500 rpm for 3 min before being washed twice with sterile phosphate-buffered saline (PBS) (pH 7.4). Subsequently, the erythrocytes were diluted with PBS to a final concentration of 8% (v/v). The DMSO-dissolved compounds were twofold serially diluted in PBS to achieve a final concentration with DMSO less than 0.5%. […] Sterile PBS and 0.2% Triton X-100 were used as negative and positive controls, respectively. After 1 hour of incubation at 37°C, the tested samples were centrifuged at 2500 rpm for 5 min, and aliquots of the supernatant were added to 96-well microplates. The hemoglobin release was determined by measuring the absorbance at 576 nm using a BioTek multimode reader. The percentage of hemolytic activity was calculated using the following formula: Hemolysis rate (%) = [OD576 (compound) − OD576 (PBS)]/[OD576 (Triton X-100) − OD576 (PBS)] × 100. All measurements were repeated three times with duplicates each time.

[2] = tested on: E. coli ATCC 25922; assay: MIC, broth microdilution; assay type: cell-based, Escherichia coli; details: Escherichia coli, ATCC25922, 24 h, 24-hour incubation, MHB; read-out: MIC90 E. coli ATCC 25922
Method: (§1) MIC was determined using the broth microdilution method in accordance with Clinical and Laboratory Standards Institute guidelines. All compounds were dissolved in dimethyl sulfoxide (DMSO; final DMSO concentration of less than 0.5%) and sterile double-distilled water and then diluted with Mueller-Hinton broth (MHB). Each compound’s stock solution was serially twofold diluted, resulting in concentrations ranging from 0.39 to 100 μg/ml, and thereafter added to sterile 96-well plates. All bacterial cell suspensions were adjusted in MHB to attain a starting inoculum of 1 × 10^6 cells/ml. A total of 100 μl volume of the bacterial suspension was then added to each well. Following a 24-hour incubation at 37°C, the optical density at 600 nm (OD600) was confirmed by measuring absorbance at 600 nm with a BioTek microplate reader. […] All measurements were repeated three times with duplicates each time.

[3] = tested on: S. aureus ATCC 29213; assay: MIC, broth microdilution; assay type: cell-based; details: Staphylococcus aureus, ATCC29213, 24 h, 24-hour incubation, MHB; read-out: MIC90 S. aureus ATCC 29213
Method: as §1

[4] = tested on: MRSA N315; assay: MIC, broth microdilution; assay type: cell-based; details: Staphylococcus aureus, 24-hour incubation, MHB, read-out: MIC90 MRSA N315
Method: as §1

[5] = tested on: MRSA NCTC 10442; assay: MIC, broth microdilution; assay type: cell-based; details: Staphylococcus aureus; 24-hour incubation, MHB; read-out: MIC90 MRSA NCTC 10442
Method: as §1

[6] = tested on: Gram-negative bacteria; assay: MIC, Gram-negative strains; assay type: cell-based; details: read-out: MICs against Gram-negative bacteria
Method: as §1

[7] = tested on: Gram-positive bacteria; assay: MIC, summary over Gram-positive strains; assay type: cell-based; details: read-out: MICs against Gram-positive bacteria, three Gram-positive strains
Method: as §1

[8] = tested on: tested strains (Gram-positive and Gram-negative bacteria); assay: MIC, summary over the tested strains; assay type: cell-based; details: read-out: MICs against the tested strains
Method: as §1

[9] = not the whole compound, cited from earlier work
[10] = tested on: K. pneumonia ATCC 10031; assay: MIC, broth microdilution; assay type: cell-based; details: Klebsiella pneumoniae, ATCC10031; 24-hour incubation, MHB
Method: as §1

[11] = tested on: A. baumannii ATCC 17978; assay: MIC, broth microdilution; assay type: cell-based; details: Acinetobacter baumannii, ATCC17978; 24-hour incubation, MHB
Method: as §1

[12] = tested on: P. aeruginosa ATCC 9027; assay: MIC, broth microdilution; assay type: cell-based; details: Pseudomonas aeruginosa, ATCC9027; 24-hour incubation, MHB
Method: as §1

[13] = tested on: K. pneumonia ATCC 14581; assay: MIC, broth microdilution; assay type: cell-based; details: Klebsiella pneumoniae, ATCC14581; 24-hour incubation, MHB
Method: as §1

[14] = tested on: A. baumannii R2889; assay: MIC, broth microdilution; assay type: cell-based; details: Acinetobacter baumannii, 24-hour incubation, MHB
Method: as §1

Row | SMILES | HC50 [1] | MIC90 [2] | MIC90 [3] | MIC90 [4] | MIC90 [5] | MIC [6] | MIC [7] | MIC ([8]; 24 h) | pKa ([9]; for the free primary amine group) | MIC90 [10] | MIC90 [11] | MIC90 [12] | MIC90 [13] | MIC90 [14] | MIC ([8]; Gram-positive and Gram-negative strains) | pKa ([9]; for the free thiomorpholine group)
1 | CCCCN(CCCC)CCCOc1ccc2c(=O)c3c(OCC=C(C)C)cc(OCCCN(CCCC)CCCC)cc3oc2c1 [XT10] | >200 µg/mL | > 50 µg/mL | 12.5 µg/mL (≈ 19.2 µM) | 6.25 µg/mL (≈ 9.6 µM) | 12.5 µg/mL (≈ 19.2 µM) | – | – | – | – | – | – | – | – | – | – | –
2 | COc1cc(OCCCNC(=N)N)cc2oc3cc(OCCCNC(=N)N)ccc3c(=O)c12 [XT19] | >200 µg/mL | 100 µg/mL (≈ 219 µM) | 6.25 µg/mL (≈ 13.7 µM) | 12.5 µg/mL (≈ 27.4 µM) | 6.25 µg/mL (≈ 13.7 µM) | 100 µg/mL (≈ 219 µM) | 6.25 to 12.5 µg/mL (≈ 13.7 to 27.4 µM) | – | – | – | – | – | – | – | – | –
3 | CC(C)=CCOc1cc(OCCCN)cc2oc3cc(OCCCN)ccc3c(=O)c12 [XT07] | >200 µg/mL | 25 µg/mL (≈ 58.6 µM) | 12.5 µg/mL (≈ 29.3 µM) | 12.5 µg/mL (≈ 29.3 µM) | 12.5 µg/mL (≈ 29.3 µM) | – | – | 12.5 to 50 µg/mL (≈ 29.3 to 117 µM) | 10.54 | – | – | – | – | – | – | –
4 | CC(C)=CCOc1cc(OCCNC(=N)N)cc2oc3cc(OCCNC(=N)N)ccc3c(=O)c12 [XT42] | >200 µg/mL | – | 1.56 µg/mL (≈ 3.23 µM) | 1.56 µg/mL (≈ 3.23 µM) | 1.56 µg/mL (≈ 3.23 µM) | – | 0.098 to 1.56 µg/mL (≈ 0.203 to 3.23 µM) | – | – | 50 µg/mL (≈ 104 µM) | > 50 µg/mL | 6.25 µg/mL (≈ 13 µM) | 50 µg/mL (≈ 104 µM) | > 50 µg/mL | – | –
5 | CC(C)=CCOc1cc(OCCCCN)cc2oc3cc(OCCCCN)ccc3c(=O)c12 [XT33] | >200 µg/mL | 12.5 µg/mL (≈ 27.5 µM) | 3.12 µg/mL (≈ 6.87 µM) | 3.12 µg/mL (≈ 6.87 µM) | 3.12 µg/mL (≈ 6.87 µM) | – | – | – | – | – | – | – | – | – | – | –
6 | CC(C)=CCOc1cc(OCCCN2CCCC2)cc2oc3cc(OCCCN4CCCC4)ccc3c(=O)c12 [XT12] | >200 µg/mL | 25 µg/mL (≈ 46.8 µM) | 6.25 µg/mL (≈ 11.7 µM) | 12.5 µg/mL (≈ 23.4 µM) | 6.25 µg/mL (≈ 11.7 µM) | – | – | – | – | – | – | – | – | – | 6.25 to 25 µg/mL (≈ 11.7 to 46.8 µM) | –
7 | [H]/N=C(/N)NCCCOc1ccc2c(=O)c3c(OCC=C(C)CCC=C(C)C)cc(OCCCNC(=N)N)cc3oc2c1 [XT18] | 65.3 ± 2.75 µg/mL | 1.56 µg/mL (≈ 2.7 µM) | 0.78 µg/mL (≈ 1.35 µM) | 0.78 µg/mL (≈ 1.35 µM) | 0.78 µg/mL (≈ 1.35 µM) | 1.56 µg/mL (≈ 2.7 µM) | 0.39 µg/mL (≈ 0.674 µM) | – | – | 6.25 µg/mL (≈ 10.8 µM) | 25 µg/mL (≈ 43.2 µM) | 12.5 µg/mL (≈ 21.6 µM) | 12.5 µg/mL (≈ 21.6 µM) | 12.5 µg/mL (≈ 21.6 µM) | – | –
8 | CNCCCCCCCCOc1ccc2c(=O)c3c(OCC=C(C)C)cc(OCCCCCCCCNC)cc3oc2c1 [XT37] | >200 µg/mL | 6.25 µg/mL (≈ 10.5 µM) | 0.78 µg/mL (≈ 1.31 µM) | 0.39 µg/mL (≈ 0.656 µM) | 0.39 µg/mL (≈ 0.656 µM) | – | – | – | – | – | – | – | – | – | – | –
9 | CC(C)=CCOc1cc(OCCCN2CCSCC2)cc2oc3cc(OCCCN4CCSCC4)ccc3c(=O)c12 [XT11] | >200 µg/mL | > 50 µg/mL | > 50 µg/mL | > 50 µg/mL | > 50 µg/mL | – | – | > 50 µg/mL | – | – | – | – | – | – | – | 9.0
10 | CC1(C)S[C@@H]2[C@H](NC(=O)[C@H](N)c3ccc(O)cc3)C(=O)N2[C@H]1C(=O)O [AMO, amoxicillin, reference compound] | >200 µg/mL | 6.25 µg/mL (≈ 17.1 µM) | – | – | – | – | – | – | – | – | – | – | – | – | – | –
11 | CNCCCOc1ccc2c(=O)c3c(OCCCC(F)(F)F)cc(OCCCNC)cc3oc2c1 [XT16] | >200 µg/mL | > 100 µg/mL | 50 µg/mL (≈ 101 µM) | > 50 µg/mL | > 50 µg/mL | – | – | 50 to 100 µg/mL (≈ 101 to 201 µM) | – | – | – | – | – | – | – | –
12 | CC(C)=CCOc1cc(OCCCCCCCCNC(=N)N)cc2oc3cc(OCCCCCCCCNC(=N)N)ccc3c(=O)c12 [XT45] | >200 µg/mL | – | 0.39 µg/mL (≈ 0.599 µM) | 0.195 µg/mL (≈ 0.3 µM) | 0.39 µg/mL (≈ 0.599 µM) | – | 0.098 to 1.56 µg/mL (≈ 0.151 to 2.4 µM) | – | – | 12.5 µg/mL (≈ 19.2 µM) | 50 µg/mL (≈ 76.8 µM) | > 50 µg/mL | 25 µg/mL (≈ 38.4 µM) | 50 µg/mL (≈ 76.8 µM) | – | –
